The results in this text go back to ChEMBL document CHEMBL1133031, “Salicylamide inhibitors of influenza virus fusion” (Bioorg Med Chem Lett, 2000).

≈ marks a conversion by molar mass, not a printed value.

A short description of assay [1]: The compound was tested for activity against A/WSN/33 influenza strain-induced toxicity in MDBK cells by using cell protection assay; Not active at 50 ug/mL. In kind it is functional, cell-based, Bos taurus.
A short description of assay [2]: The cytotoxic activity was evaluated in MDBK cells. The following applies: Bos taurus. In kind it is functional.
The nature of assay [3]: Tested for activity against A/WSN/33 influenza strain-induced toxicity in MDBK cells by using cell protection assay; Not active. In kind it is functional, organism-based.
Assay [4] in a line: Tested for activity against A/WSN/33 influenza strain-induced toxicity in MDBK cells by using cell protection assay. In kind it is functional, organism-based.

For orientation: EC50 means the concentration that produces a half-maximal response. The low end stands for a more potent agent, the high end for a less potent agent. Usually CC50 stands for the concentration giving 50% cytotoxicity. Lower therefore signals harm at low concentration.

As for `CCC(C)N1CCC(NC(=O)c2cc(C)ccc2O)CC1` (centres undefined), the 50% effective concentration (EC50) entry in assay [1] was “Not Active”. For the same compound, the CC50 in assay [2] was 100 µg/mL (≈ 344 µM).

With `Cc1ccc(O)c(C(=O)NCCCN2CC(C)C[C@@H]3CCCC[C@@H]32)c1` (some centres undefined), in assay [3], the EC50 entry is given as “Not Active”. In assay [2], the CC50 was determined as 9.5 µg/mL (≈ 27.6 µM).

As to `C[C@@H]1CCC[C@H](C)N1CCCCNC(=O)c1cc(Cl)ccc1O`, the cytotoxic concentration (CC50) in assay [2] is 100 µg/mL (≈ 295 µM). Also, the concentration giving a half-maximal response (EC50) in assay [4] is 1 µg/mL (≈ 2.95 µM).

For `Cc1ccc(O)c(C(=O)NCCCN2[C@@H](C)CC[C@@H]3CCCC[C@@H]32)c1`, the cytotoxic concentration (CC50) in assay [2] is over 100 µg/mL. Also, the EC50 in assay [4] was determined as 6 µg/mL (≈ 17.4 µM).

In assay [2], `CC1CC[C@@H]2CCCC[C@@H]2N1CCCNC(=O)c1cc(Cl)ccc1O` (some centres undefined) showed a half-maximal cytotoxic concentration (CC50) of 40 µg/mL (≈ 110 µM). Also, the concentration for a half-maximal effect (EC50) in assay [4] turned out to be 0.09 µg/mL (≈ 0.247 µM).

Consider `O=C(NCCCN1CCC[C@@H]2CCCC[C@@H]21)c1cc(Cl)ccc1O`, for which it took 43 µg/mL (≈ 123 µM) to reach half-maximal cytotoxicity in assay [2] (CC50). The compound also came in with an EC50 in assay [4] of 1.4 µg/mL (≈ 3.99 µM).

As for `Cc1ccc(O)c(C(=O)NCCCN2[C@H](C)CC[C@@H]3CCCC[C@@H]32)c1`, it took 35 µg/mL (≈ 102 µM) to reach half-maximal cytotoxicity in assay [2] (CC50). Besides, it took 0.19 µg/mL (≈ 0.552 µM) to reach a half-maximal effect in assay [4] (EC50).

For `Cc1ccc(O)c(C(=O)NCCCN2CCC(C)[C@@H]3CCCC[C@@H]32)c1` (some centres undefined), the concentration giving a half-maximal response (EC50) entry in assay [3] was “Not Active”. For the same compound, the midpoint of cytotoxicity in assay [2], the CC50, lay at 100 µg/mL (≈ 290 µM).

`C[C@@H]1CCC[C@H](C)N1CCCNC(=O)c1cc(Cl)ccc1O` returned a CC50 in assay [2] of 30 µg/mL (≈ 92.3 µM). This compound gave an EC50 in assay [4] of 4.5 µg/mL (≈ 13.9 µM).

Consider `Cc1ccc(O)c(C(=O)NCCCCN2CCC[C@@H]3CCCC[C@@H]32)c1`, for which the EC50 result in assay [3] was “Not Active”. In assay [2], this compound showed a CC50 of 30 µg/mL (≈ 87.1 µM).

On to `CN1C2CCC1CC(NC(=O)c1cc(Cl)ccc1O)C2` (centres undefined), for which the EC50 entry in assay [3] is reported as “Not Active”. This compound also displayed a half-maximal cytotoxic concentration (CC50) in assay [2] of 100 µg/mL (≈ 339 µM).

With `Cc1ccc(O)c(C(=O)NCCCCN2[C@H](C)CCC[C@@H]2C)c1`, in assay [2], the CC50 was over 100 µg/mL. The compound further displayed a concentration for a half-maximal effect (EC50) in assay [4] of 0.7 µg/mL (≈ 2.2 µM).

Compound `Cc1ccc(O)c(C(=O)NCCCN2CCC[C@@H]3CCCC[C@@H]32)c1` yielded a CC50 in assay [2] of over 100 µg/mL. The EC50 in assay [4] turned out to be 0.65 µg/mL (≈ 1.97 µM).

`Cc1ccc(O)c(C(=O)NCCCCN2C(C)CC[C@@H]3CCCC[C@@H]32)c1` (some centres undefined): the EC50 entry in assay [3] was “Not Active”. Also, the 50% cytotoxic concentration (CC50) in assay [2] was 90 µg/mL (≈ 251 µM).

In turn, `O=C(NCCCN1CCC[C@@H]2CCCC[C@H]21)c1cc(Cl)ccc1O` came in with a CC50 in assay [2] of 45 µg/mL (≈ 128 µM). The compound further yielded an EC50 in assay [4] of 1.4 µg/mL (≈ 3.99 µM).

Regarding `Cc1ccc(O)c(C(=O)NC2CC3CCC(C2)N3C)c1` (centres undefined), in assay [3], the concentration giving a half-maximal response (EC50) result is given as “Not Active”. Moreover, the midpoint of cytotoxicity in assay [2], the CC50, lay at 100 µg/mL (≈ 364 µM).

As to `Cc1ccc(O)c(C(=O)NCCCN2C(C(C)C)CC[C@@H]3CCCC[C@@H]32)c1` (some centres undefined), the CC50 in assay [2] amounted to 80 µg/mL (≈ 215 µM). This compound came in with an EC50 in assay [4] of 0.25 µg/mL (≈ 0.671 µM).

In turn, `Cc1ccc(O)c(C(=O)NCCCN2[C@H](C)CCC[C@@H]2C)c1` gave a CC50 in assay [2] of over 100 µg/mL. In assay [4], this compound yielded a concentration for a half-maximal effect (EC50) of 1.8 µg/mL (≈ 5.91 µM).

In turn, `Cc1ccc(O)c(C(=O)NCCCN2C(C)CC[C@@H]3CCCC[C@H]32)c1` (single isomer, unassigned) had a CC50 in assay [2] of 30 µg/mL (≈ 87.1 µM). It took 1.5 µg/mL (≈ 4.35 µM) to reach a half-maximal effect in assay [4] (EC50).

`C[C@@H]1CCC[C@@H]2C[C@@H](NC(=O)c3cc(Cl)ccc3O)CCN21` showed a CC50 in assay [2] of over 200 µg/mL. The same compound returned a concentration giving a half-maximal response (EC50) in assay [4] of 0.8 µg/mL (≈ 2.48 µM).

In assay [2], `Cc1ccc(O)c(C(=O)NCCCN(C(C)C)C(C)C)c1` displayed a CC50 of over 100 µg/mL. Further, the 50% effective concentration (EC50) in assay [4] was 0.9 µg/mL (≈ 3.08 µM).

In turn, `Cc1ccc(O)c(C(=O)NCCCN2CCC[C@@H]3CCCC[C@H]32)c1` returned a CC50 in assay [2] of 60 µg/mL (≈ 182 µM). In assay [4], this compound displayed an EC50 of 0.35 µg/mL (≈ 1.06 µM).
